Literature values, collected in patent US20050271754A1, “Composition for prevention or treatment of an alcohol hangover” (priority 2004, published 2005).

Tested on: acetaldehyde levels in the blood, liver and brain
Settings: increases the oxidation cycle of ethanol

## N[C@@H](CS)C(=O)O [L-cysteine]
  acetaldehyde levels in the blood, liver and brain: lowering acetaldehyde levels
